This is an account of results in PMC7972864, “Fucoxanthin Prevents 6-OHDA-Induced Neurotoxicity by Targeting Keap1” (Oxidative Medicine and Cellular Longevity, 2021).

The target in the assay is Keap1 (Homo sapiens, UniProt Q14145). The assay can be described thus: biolayer interferometry (Octet K2), biotinylated human Keap1 on the sensor. It is filed as binding.

SMILES strings stand for the structures.

Sequence of Keap1 (Q14145 whole entry): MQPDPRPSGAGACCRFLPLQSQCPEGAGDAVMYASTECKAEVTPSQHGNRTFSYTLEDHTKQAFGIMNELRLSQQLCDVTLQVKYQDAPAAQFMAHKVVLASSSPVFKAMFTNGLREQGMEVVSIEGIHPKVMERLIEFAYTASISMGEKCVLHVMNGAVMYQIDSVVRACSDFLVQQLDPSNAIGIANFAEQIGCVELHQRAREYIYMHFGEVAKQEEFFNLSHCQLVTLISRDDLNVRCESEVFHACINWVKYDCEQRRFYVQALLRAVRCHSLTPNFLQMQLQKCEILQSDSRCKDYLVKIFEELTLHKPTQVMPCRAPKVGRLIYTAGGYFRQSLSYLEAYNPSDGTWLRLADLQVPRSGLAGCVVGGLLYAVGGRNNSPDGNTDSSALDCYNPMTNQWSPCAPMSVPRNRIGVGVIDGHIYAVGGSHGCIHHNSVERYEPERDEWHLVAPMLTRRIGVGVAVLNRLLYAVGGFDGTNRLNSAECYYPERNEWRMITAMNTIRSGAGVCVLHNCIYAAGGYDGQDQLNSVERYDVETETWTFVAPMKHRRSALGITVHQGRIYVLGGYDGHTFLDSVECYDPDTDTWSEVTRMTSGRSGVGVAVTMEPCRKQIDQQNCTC

`CC(=O)O[C@H]1CC(C)(C)C(=C=C/C(C)=C/C=C/C(C)=C/C=C/C=C(C)/C=C/C=C(\C)C(=O)C[C@@]23O[C@]2(C)C[C@@H](O)CC3(C)C)[C@](C)(O)C1` [FUC, fucoxanthin] registered a Kd of 5.16E − 5.
